Measurements published in US20250332108A1 (Veradermics, Incorporated, priority 2024, published 2025).
Like-named read-outs stand apart in the source and are kept apart here.

Experiments:
[1] = system: Salmonella; details: Salmonella (Ames) test; cited from earlier work
[2] = cited from earlier work; for Duration plasma concentrations above 20 ng/ml: immediate release
[3] = system: rats; details: cited from earlier work
[4] = system: rats; details: cited from earlier work; remark: listed apart in the source
[5] = system: rat hepatocyte; details: in vitro rat hepatocyte unscheduled DNA synthesis assay; cited from earlier work
[6] = system: Chinese hamster cells; details: Chinese hamster cells at long exposure times; cited from earlier work
[7] = system: mice; details: dietary, cited from earlier work
[8] = system: mouse bone marrow; details: mouse bone marrow micronucleus assay; cited from earlier work
[9] = system: hypertensive patients; details: intravenous infusion; cited from earlier work
[10] = system: patients; details: cited from earlier work
[11] = system: rabbits; details: cited from earlier work
[12] = system: dogs; details: short-term administration 0.5 mg to 10 mg/kg/day; cited from earlier work
[13] = system: person with androgenetic alopecia; assay: Case studies: oral minoxidil in males with androgenetic alopecia (blood pressure, heart rate, hair growth)
[14] = cited from earlier work
[15] = system: human lymphocytes; details: cited from earlier work
[16] = system: male adults with AGA; details: 5 mg oral at bedtime, cited from earlier work
[17] = system: subjects with hair loss; details: cited from earlier work
[18] = system: rat bone marrow; details: rat bone marrow micronucleus assay; cited from earlier work
[19] = oral, dose level 2.5 mg, healthy volunteers
[20] = oral, dose level 5 mg, healthy volunteers
[21] = oral, dose level 10 mg, healthy volunteers

## Nc1cc(N2CCCCC2)nc(N)[n+]1[O-] [Minoxidil]
[1]
  Mutagenicity: not mutagenic
[2]; 2.5 mg, 5 mg, or 10 mg oral, healthy volunteers
  Dose dependence of PK and urinary excretion: dose-independent PK
[2]; 2.5 mg, 5 mg, or 10 mg oral, normotensive subjects
  Effect on blood pressure: little effect on blood pressure in normotensive subjects
[2]; 5 mg dose level
  Duration plasma concentrations above 20 ng/ml: around 1 h
[2]; 10 mg dose level
  Duration plasma concentrations above 20 ng/ml: around 2 h
[2]; immediate release formulation, oral
  Observed half-life: around 1 h
[2]; [19]
  AUC(last): 25.3 ng·h/mL
  Cmax: 16.8 ng/mL
  T1/2: 64.2 min
  Tmax: 34 min
[2]; [20]
  AUC(last): 55.1 ng·h/mL
  Cmax: 37.2 ng/mL
  T1/2: 76.2 min
  Tmax: 23.3 min
[2]; [21]
  AUC(last): 112 ng·h/mL
  Cmax: 74.7 ng/mL
  T1/2: 80.4 min
  Tmax: 25.1 min
[3]
  Fetal resorption: not seen
  Teratogenic effects: no evidence of teratogenic effects
[4]; doses 15 times the usual human dosage for 22 months
  Carcinogenicity: No evidence of carcinogenicity
[4]; oral administration, two-year study
  Carcinogenicity findings: no positive findings
[5]
  Mutagenicity: not mutagenic
[6]
  Cytogenetic assay result: equivocal result
[7]; up to 2 years, 63 mg/kg/day
  Incidence of hepatic nodules: increased incidence of hepatic nodules in males
[7]; up to 2 years, 10, 25, and 63 mg/kg/day
  Incidence of malignant lymphomas: increased incidence of malignant lymphomas in females at all dose levels
[8]
  Mutagenicity: not mutagenic
[9]
  Steady state plasma concentrations associated with significant (>5 beats per minute) changes in heart rate: above 20 ng/mL
[10]; chronic therapy for severe hypertension, initially
  Temporary decrease in hematocrit, hemoglobin, and erythrocyte count (hemodilution): approximately 7%
[10]; human, in vivo
  Patients in whom hypertrichosis was hardly or not at all tolerable: less than 10%
  Plasma concentrations above which hemodynamic effects are typically seen: > 20 ng/mL
[10]; soon after starting therapy
  Patients exhibiting ECG alterations in direction and magnitude of T waves: approximately 60%
[11]; 5 times the maximum recommended oral antihypertensive human dose
  Fetal resorption: increased fetal resorption
[11]
  Teratogenic effects: no evidence of teratogenic effects
[12]
  Cardiac lesions: various cardiac lesions have been found
[13]; 0.625 mg four times a day
  Adverse events: No unwanted hair growth or other adverse events were noticed
  Effect on blood pressure: did not experience significant reductions in blood pressure
[13]; 1.25 mg QID
  Adverse events: No unwanted hair growth or other adverse events, including any cardiac effects, were noticed
[14]; first 12 h, hypertensive patients
  Predominant metabolite in urine: A glucuronide conjugate
[14]; human, in vivo
  Renal clearance: 73.3 mL/min
[14]; hypertensive patients
  Radioactivity found in feces: 3%
  Total radioactivity recovered from urine: 97%
[14]; oral
  Time to peak plasma levels: ≤ 1 h
[14]; primarily by conjugation with glucuronic acid
  Fraction of oral minoxidil metabolized: About 90%
[14]; within 24 h after oral administration, hypertensive patients
  Radiolabeled minoxidil and metabolites recovered from urine: Over 80%
[15]
  Cytogenetic assay result: negative
[16]; 24 week follow up, 34 subjects
  Subjects reporting edema: 2.9%
  Subjects reporting headache: 20.6%
  Subjects reporting vertigo: 2.9%
[16]; 24 weeks, 34 subjects
  Subjects reporting hypertrichosis: 55.9%
[16]; 24 weeks
  Adverse cardiovascular outcomes: No adverse cardiovascular outcomes were observed
[17]; topical foam 5% versus topical solution 2% in female pattern hair loss, 322 subjects, NCT01145625
  Serious adverse events (SAEs) reported: Ten serious adverse events (SAEs) were reported
[17]; topical foam 5% versus vehicle topical foam, 404 subjects, NCT01226459
  SAEs reported in subjects treated with minoxidil: Six SAEs were reported
[18]
  Mutagenicity: not mutagenic
